Test results taken from patent US20070293451A1, “Regulation ao ApoB by Hsp110 proteins and related compositions and methods” (University of Pittsburgh, priority 2006, published 2007).
Peptide text beside a SMILES is read from it. * marks the point of attachment. 6FAM = O=C1OC2(c3ccc(O)cc3Oc3cc(O)ccc32)c2cc(C(=O)*)ccc21; Ahx = NCCCCCC(=O)O

Experiments:
[1] = molecular target: Sse1p peptide binding domain (Saccharomyces cerevisiae, UniProt P32589); conditions: fluorescence anisotropy
Method: (SEQ ID NO: 1) (which derives from firefly luciferase), assessed by fluorescence anisotropy.
(§1) Binding was assessed by fluorescence anisotropy.

full-length Sse1p = molecular target: T1, full-length Sse1p (Saccharomyces cerevisiae, UniProt P32589); assay: Fluorescence anisotropy binding of labeled luciferase-derived peptide to full-length Sse1p
T1 sequence (P32589 1-693): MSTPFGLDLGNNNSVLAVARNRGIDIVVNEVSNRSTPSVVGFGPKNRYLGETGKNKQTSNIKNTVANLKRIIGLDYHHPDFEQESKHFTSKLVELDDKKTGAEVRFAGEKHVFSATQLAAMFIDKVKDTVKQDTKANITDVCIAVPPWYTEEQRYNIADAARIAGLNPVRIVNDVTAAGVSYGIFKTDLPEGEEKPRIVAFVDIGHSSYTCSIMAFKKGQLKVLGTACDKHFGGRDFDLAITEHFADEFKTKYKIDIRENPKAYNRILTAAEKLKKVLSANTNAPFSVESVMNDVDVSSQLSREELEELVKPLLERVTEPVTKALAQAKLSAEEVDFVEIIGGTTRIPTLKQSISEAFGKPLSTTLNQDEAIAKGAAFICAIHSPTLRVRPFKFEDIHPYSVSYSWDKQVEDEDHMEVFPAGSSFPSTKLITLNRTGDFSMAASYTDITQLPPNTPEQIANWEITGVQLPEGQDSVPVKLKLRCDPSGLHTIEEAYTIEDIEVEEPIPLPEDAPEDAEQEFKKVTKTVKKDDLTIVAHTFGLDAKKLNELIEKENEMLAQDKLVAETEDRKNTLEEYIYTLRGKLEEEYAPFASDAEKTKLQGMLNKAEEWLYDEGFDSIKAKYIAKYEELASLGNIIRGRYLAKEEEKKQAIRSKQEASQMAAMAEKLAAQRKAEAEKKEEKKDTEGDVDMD
Method: as §1

ApoB100 = ApoB100 biogenesis and secretion from McArdle cells (pulse-chase) on Hsp110 over-expression; type: cell-based, rat; conditions: MTP inhibitor BMS-200150 present, without Hsp110 over-expression, data not shown
Method: FIGS. 9A and 9B show the effect of Hsp110 over-expression on ApoB100 secretion from McArdle cells, a standard rat hepatoma cell model of lipoprotein metabolism. ApoB100 (FIG. 9A) and albumin (FIG. 9B) biogenesis and secretion were assessed by published pulse-chase analytical methods.
An Hsp110 expression vector was obtained from Dr. John Subjeck (Roswell Park Cancer Center, N.Y.), and either that vector or a vector control was introduced into McArdle cells—a rat hepatoma cell line that also expresses full-length ApoB (that is, ApoB100). […] As a control, there was no effect on albumin secretion from these cells, regardless of whether Hsp110 was over-expressed (FIG. 9B). Furthermore, the over-expression of Hsp110 in the McArdle cells in the presence of a microsomal triglyceride transfer protein (MTP) inhibitor (BMS-200150; Jamil, H., D. A. Gordon, D. C. Eustice, C. M. Brooks, J. K. Dickson, Jr., Y. Chen, B. Ricci, C.-H. Chu, T. W. Harrity, C. P. Ciosek, Jr., S. A. Biller, R. E. Gregg, and J. R. Wetterau. 1996. An inhibitor of the microsomal triglyceride transfer protein inhibits apoB secretion from HepG2 cells. Proc Natl Acad Sci USA. 93, 11991-95) increased the percent of apoB recovered in the lysate and medium fractions from 14% to 28% (data not shown).

CC[C@H](C)[C@H](NC(=O)[C@H](CC(C)C)NC(=O)CCCCCNC(=O)c1ccc2c(c1)C1(OC2=O)c2ccc(O)cc2Oc2cc(O)ccc21)C(=O)N[C@@H](CS)C(=O)NCC(=O)N[C@@H](Cc1ccccc1)C(=O)N[C@@H](CCCNC(=N)N)C(=O)N[C@H](C(=O)N[C@H](C(=O)N[C@@H](CC(C)C)C(=O)N[C@@H](CCSC)C(=O)N[C@@H](Cc1ccc(O)cc1)C(=O)N[C@@H](CCCNC(=N)N)C(=O)N[C@@H](Cc1ccccc1)C(=O)O)C(C)C)C(C)C [6-carboxyfluorescein-aminohexanoic acid-linked-LICGFRVVLMYRF] ({6FAM-Ahx}-LICGFRVVLMYRF-OH)
lower affinity for Sse1p peptide binding domain alone compared with Sse1p [1]: ~100 fold | Kd (full-length Sse1p): 2 to 3 nM

O=C1c2ccccc2CN1C1CCN(CCC(c2ccccc2)c2ccccc2)CC1 [BMS-200150, reference compound]
percent of apoB recovered in the lysate and medium fractions (ApoB100): 14%

LICGFRVVLMYRF [Unlabeled peptide, unlabeled form of the firefly luciferase-derived peptide]
competition with labeled peptide for binding (full-length Sse1p; data not shown): competes for binding
